Measured values taken from patent US4272437A, “Antibacterial agents, and 4-thio azetidinone intermediates” (priority 1979, dated 1981).
Values after ≈ are worked out from the molar mass of the structure shown. Like-named read-outs stand apart in the source and are kept apart here.

Legend:
[1] = system: Str. pneumoniae A-9585; assay: MIC, tube dilution, Streptococcus pneumoniae A9585; assay type: cell-based; conditions: Streptococcus pneumoniae, A9585, Str. pneumoniae A9585; overnight 37° C., Nutrient Broth; read-out: Minimum Inhibitory Concentration (M.I.C.)
Source text: (§1) Representative compounds of the present invention were subjected to in vitro antibiotic screening against a variety of microorganisms.

[2] = system: Str. pyogenes A-9604; assay: MIC, tube dilution, Streptococcus pyogenes A9604; assay type: cell-based; conditions: Streptococcus pyogenes, A9604, Str. pyogenes A9604; overnight 37° C., Nutrient Broth; read-out: Minimum Inhibitory Concentration (M.I.C.)
Source text: as §1

[3] = system: Staph. aureus A-9537; assay: MIC, tube dilution, Staphylococcus aureus A9537; assay type: cell-based; conditions: Staphylococcus aureus, A9537, Staph. aureus A9537; overnight 37° C., Nutrient Broth; read-out: Minimum Inhibitory Concentration (M.I.C.)
Source text: as §1

[4] = system: Staph. aureus A-9537 and 50% serum; assay: MIC, tube dilution, Staph. aureus A9537 + 50% serum; assay type: cell-based, Staphylococcus aureus; conditions: Staphylococcus aureus, overnight 37° C., read-out: Minimum Inhibitory Concentration (M.I.C.)
Source text: as §1

[5] = system: Staph. aureus (Pen-Res) A-9606; assay: MIC, tube dilution, Staphylococcus aureus A9606 (Pen-Res); assay type: cell-based; conditions: Staphylococcus aureus, Staph. aureus A9606 (Pen-Res); overnight 37° C.; read-out: Minimum Inhibitory Concentration (M.I.C.)
Source text: as §1

[6] = system: Staph. aureus (Meth-Res) A-15097; assay: MIC, tube dilution, Staphylococcus aureus A15097 (Meth-Res); assay type: cell-based; conditions: Staphylococcus aureus, overnight 37° C.
Source text: as §1

[7] = system: Str. faecalis A-20688; assay: MIC, tube dilution, Streptococcus faecalis A20688; assay type: cell-based; conditions: Enterococcus faecalis, A20688, Str. faecalis A20688; overnight 37° C.; read-out: Minimum Inhibitory Concentration (M.I.C.)
Source text: as §1

[8] = system: E. coli A-15119; assay: MIC, tube dilution, Escherichia coli A15119; assay type: cell-based; conditions: Escherichia coli, A15119, E. coli A15119; overnight 37° C.; read-out: Minimum Inhibitory Concentration (M.I.C.)
Source text: as §1

[9] = system: E. coli A-20341-1; assay: MIC, tube dilution, Escherichia coli A20341-1; assay type: cell-based
Source text: as §1

[10] = system: K. pneumoniae A-15130; assay: MIC, tube dilution, Klebsiella pneumoniae A15130; assay type: cell-based; conditions: Klebsiella pneumoniae, A15130, K. pneumoniae A15130; overnight 37° C.; read-out: Minimum Inhibitory Concentration (M.I.C.)
Source text: as §1

[11] = system: Klebsiella species A20468; assay: MIC, tube dilution, Klebsiella species A20468; assay type: cell-based; conditions: Klebsiella species (K. pneumoniae) A20468; overnight 37° C.; read-out: Minimum Inhibitory Concentration (M.I.C.)
Source text: as §1

[12] = system: Pr. mirabilis A-9900; assay: MIC, tube dilution, Proteus mirabilis A9900; assay type: cell-based; conditions: Proteus mirabilis, A9900, Proteus mirabilis A9900; overnight 37° C.; read-out: Minimum Inhibitory Concentration (M.I.C.)
Source text: as §1

[13] = system: Pr. vulgaris A-9716; assay: MIC, tube dilution, Proteus vulgaris / Proteus mirabilis A9716; assay type: cell-based, Proteus vulgaris (name changed to Proteus mirabilis); conditions: Proteus vulgaris, A9716, Proteus vulgaris / Proteus mirabilis A9716; overnight 37° C.; read-out: Minimum Inhibitory Concentration (M.I.C.)
Source text: as §1

[14] = system: Pr. morganii A-15153; assay: MIC, tube dilution, Proteus morganii A15153; assay type: cell-based; conditions: Morganella morganii, A15153, Proteus morganii A15153; overnight 37° C.; read-out: Minimum Inhibitory Concentration (M.I.C.)
Source text: as §1

[15] = system: Ser. marcescens A-20019; assay: MIC, tube dilution, Serratia marcescens A20019; assay type: cell-based; conditions: Serratia marcescens, A20019, Serratia marcescens A20019; overnight 37° C.; read-out: Minimum Inhibitory Concentration (M.I.C.)
Source text: as §1

[16] = system: Ent. cloacae A-9659; assay: MIC, tube dilution, Enterobacter cloacae A9659; assay type: cell-based; conditions: Enterobacter cloacae, A9659, Enterobacter cloacae A9659; overnight 37° C.; read-out: Minimum Inhibitory Concentration (M.I.C.)
Source text: as §1

[17] = system: Ent. cloacae A-9656; assay: MIC, tube dilution, Enterobacter cloacae A9656; assay type: cell-based; conditions: Enterobacter cloacae, A9656, Enterobacter cloacae A9656; overnight 37° C.; read-out: Minimum Inhibitory Concentration (M.I.C.)
Source text: as §1

[18] = system: Ps. aeruginosa A-9843A; assay: MIC, tube dilution, Pseudomonas aeruginosa A9843A; assay type: cell-based; conditions: Pseudomonas aeruginosa, A9843A, read-out: Minimum Inhibitory Concentration (M.I.C.), Pseudomonas aeruginosa A9843A; overnight 37° C.
Source text: as §1

[19] = system: Ps. aeruginosa A-21213; assay: MIC, tube dilution, Pseudomonas aeruginosa A21213; assay type: cell-based; conditions: overnight 37° C., read-out: Minimum Inhibitory Concentration (M.I.C.)
Source text: as §1

[20] = system: Proteus rettgeri A21203; assay: MIC, tube dilution, Proteus rettgeri A21203; assay type: cell-based; conditions: Providencia rettgeri, A21203, Proteus rettgeri A21203; overnight 37° C.; read-out: Minimum Inhibitory Concentration (M.I.C.)
Source text: as §1

[21] = system: Proteus vulgaris A21559; assay: MIC, tube dilution, Proteus vulgaris A21559; assay type: cell-based; conditions: Proteus vulgaris, A21559, Proteus vulgaris A21559; overnight 37° C.; read-out: Minimum Inhibitory Concentration (M.I.C.)
Source text: as §1

[22] = Staph. aureus A15097 (Meth-Res), read-out: Minimum Inhibitory Concentration (M.I.C.)
[23] = Escherichia coli, A203411, E. coli A20341-1; overnight 37° C.; read-out: Minimum Inhibitory Concentration (M.I.C.)
[24] = Pseudomonas aeruginosa, A21213, Pseudomonas aeruginosa A21213

Row | Compound | MIC [1] [mg/L] | MIC [2] [mg/L] | MIC [3] [mg/L] | MIC [4] [mg/L] | MIC [5] [mg/L] | MIC [7] [mg/L] | MIC [8] [mg/L] | MIC [10] [mg/L] | MIC [11] [mg/L] | MIC [12] [mg/L] | MIC [14] [mg/L] | MIC [15] [mg/L] | MIC [16] [mg/L] | MIC [17] [mg/L] | MIC [18] [mg/L] | MIC [20] [mg/L] | MIC [6, 22] [mg/L] | MIC [9, 23] [mg/L] | MIC [19, 24] [mg/L] | MIC [21] [mg/L] | also measured
1 | Cn1cc(C2=C(C(=O)O)N3C(=O)CC3S2)cn1 (centres unmarked) [Example 15] | 0.13 (≈ 0.517 µM) | 0.5 (≈ 1.99 µM) | 1 (≈ 3.98 µM) | > 63 | 32 (≈ 127 µM) | 63 (≈ 251 µM) | 16 (≈ 63.7 µM) | 125 (≈ 497 µM) | > 125 | 16 (≈ 63.7 µM) | 63 (≈ 251 µM) | 63 (≈ 251 µM) | 125 (≈ 497 µM) | 63 (≈ 251 µM) | 125 (≈ 497 µM) | 16 (≈ 63.7 µM) |  |  |  |  | MIC ([6]; read-out: Minimum Inhibitory Concentration (M.I.C.), Staph. aureus A15097 (Meth-Res)): 125 mg/L (≈ 497 µM); MIC ([9]; Escherichia coli, A203411; E. coli A20341-1; overnight 37° C.; read-out: Minimum Inhibitory Concentration (M.I.C.)): > 125 mg/L; MIC [13]: 16 mg/L (≈ 63.7 µM); MIC ([19]; Pseudomonas aeruginosa A21213): 125 mg/L (≈ 497 µM)
2 | NCCSCC1=C(C(=O)O)N2C(=O)CC2S1 (centres unmarked) [Example 88, 2-(2-Aminoethylthiomethyl)penem-3-carboxylic Acid] | 0.13 (≈ 0.499 µM) | 0.13 (≈ 0.499 µM) | 0.13 (≈ 0.499 µM) | 0.5 | 16 (≈ 61.5 µM) | 63 (≈ 242 µM) | 4 (≈ 15.4 µM) | 8 (≈ 30.7 µM) | > 63 | 4 (≈ 15.4 µM) | 8 (≈ 30.7 µM) | 8 (≈ 30.7 µM) | 32 (≈ 123 µM) | 32 (≈ 123 µM) | 63 (≈ 242 µM) | 8 (≈ 30.7 µM) | 16 (≈ 61.5 µM) | 16 (≈ 61.5 µM) | > 63 | 16 (≈ 61.5 µM) | 
3 | CCC(N)CC1=C(C(=O)O)N2C(=O)CC2S1 (centres unmarked) [Example 100, 2-(2'-Aminobutyl)-penem-3-carboxylic Acid] | 0.25 (≈ 1.03 µM) | 0.25 (≈ 1.03 µM) | 0.25 (≈ 1.03 µM) | 8 | > 32 | > 32 | 4 (≈ 16.5 µM) | 16 (≈ 66 µM) | > 32 | 8 (≈ 33 µM) | 16 (≈ 66 µM) | 8 (≈ 33 µM) | 16 (≈ 66 µM) | 8 (≈ 33 µM) | > 32 | 8 (≈ 33 µM) | > 32 | 32 (≈ 132 µM) | > 32 | 16 (≈ 66 µM) | 
4 | NCC[S+]([O-])CC1=C(C(=O)O)N2C(=O)C[C@H]2S1 (some centres unmarked) [Example 101, 2-(2-Aminoethylsulfinylmethyl) penem-3-carboxylic Acid] | 0.5 (≈ 1.81 µM) | 0.5 (≈ 1.81 µM) | 0.5 (≈ 1.81 µM) | 4 | 4 (≈ 14.5 µM) | > 63 | 8 (≈ 28.9 µM) | 32 (≈ 116 µM) | > 63 | 8 (≈ 28.9 µM) | 16 (≈ 57.9 µM) | 32 (≈ 116 µM) | 32 (≈ 116 µM) | 63 (≈ 228 µM) | 63 (≈ 228 µM) | 16 (≈ 57.9 µM) | 63 (≈ 228 µM) | 32 (≈ 116 µM) | 63 (≈ 228 µM) | 16 (≈ 57.9 µM) | 
